IC50 data for 47 compounds are collected here from patent US9765074B2, “Inhibitors of the renal outer medullary potassium channel” (Merck Sharp & Dohme Corp., priority 2013, dated 2017).

What is called IC50 is the point on the concentration scale where inhibition reaches its midpoint. Low readings indicate inhibition by little substance, high ones a need for much substance.

For the assay, the target named is T1, hROMK (hKir1.1) (Homo sapiens, UniProt P48048).
T1 construct: expressed in transfected cells
T1 sequence (P48048 1-391): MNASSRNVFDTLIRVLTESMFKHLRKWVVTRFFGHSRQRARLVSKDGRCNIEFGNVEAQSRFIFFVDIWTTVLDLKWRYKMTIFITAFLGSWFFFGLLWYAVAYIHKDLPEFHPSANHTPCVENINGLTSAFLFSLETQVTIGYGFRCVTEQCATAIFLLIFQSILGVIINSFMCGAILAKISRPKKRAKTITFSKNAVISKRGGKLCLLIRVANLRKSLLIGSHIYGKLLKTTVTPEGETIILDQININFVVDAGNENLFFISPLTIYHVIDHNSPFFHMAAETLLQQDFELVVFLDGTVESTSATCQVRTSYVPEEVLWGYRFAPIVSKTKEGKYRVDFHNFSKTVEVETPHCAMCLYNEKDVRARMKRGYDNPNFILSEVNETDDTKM
The experiment in a line: Thallium Flux Assay (ROMK channel functional thallium flux, FLIPR-Tetra). Type of assay: cell-based. The following applies: HEK293 cells stably expressing hROMK (hKir1.1); 30 min compound incubation. In short, it runs like this: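 Thallium flux read by FluxOR fluorescence ([…]) for ~10 min after adding 3 mM Tl+/0.3 mM K+ final. Stable HEK-hKir1.1 cells were dye-loaded 90 min, exposed to compound 30 min at room temperature in ouabain/probenecid buffer; IC50 relative to a 3 μM control inhibitor.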
With `COC1CN(C2=C(C)C(=O)OC2)C(=O)C12CC1CCC(C2)N1C[C@@H](O)c1ccc(-n2cnnn2)nc1` (single isomer, unassigned) [Example 109], the IC50 was determined as 60 nM.

`CC1=C(N2CC(O)C3(CCN(C[C@H](O)c4ccc(-n5cnnn5)nc4)CC3)C2=O)COC1=O` (single isomer, unassigned) [Example 110] came in with an IC50 of 120 nM.

`CC1=C(N2CC(O)C3(CCN(C[C@H](O)c4ccc(-n5cnnn5)nc4)CC3)C2=O)COC1=O` (single isomer, unassigned) [Example 111] displayed a 50% inhibitory concentration (IC50) of 90 nM.

Take `CC1=C(N2C(=O)C3(CCN(C[C@H](O)c4cnc(-n5cnnn5)nc4)CC3)CC2C)COC1=O` (single isomer, unassigned) [Example 113]: the 50% inhibitory concentration (IC50) was 80 nM.

As for `COC1CN(C2=C(C)C(=O)OC2)C(=O)C12CCN(C[C@H](O)c1ccc(-n3cnnn3)nc1)CC2` (single isomer, unassigned) [Example 114], half-maximal inhibition (IC50) was put at 60 nM.

`COC1CN(C2=C(C)C(=O)OC2)C(=O)C12CCN(C[C@H](O)c1ccc(-n3cnnn3)nc1)CC2` (single isomer, unassigned) [Example 115]: the IC50 was 60 nM.

`CC1=C(N2CCC3(CCN(C[C@H](O)c4ccc(-n5cnnn5)nc4C)CC3F)C2=O)COC1=O` (single isomer, unassigned) [Example 117] gave a concentration for half-maximal inhibition (IC50) of 50 nM.

In the case of `CC1=C(N2CCC3(CCN(C[C@H](O)c4ccc(-n5cnnn5)nc4C)CC3F)C2=O)COC1=O` (single isomer, unassigned) [Example 118], it took 180 nM to reach half-maximal inhibition (IC50).

As for `CC1=C(N2C(=O)C3(CCN(C[C@H](O)c4ccc(-n5cnnn5)nn4)CC3)CC2C)COC1=O` (single isomer, unassigned) [Example 123], the IC50 was found to be 60 nM.

Consider `CC1=C(N2C(=O)C3(CCN(C[C@@H](O)c4ccc(-n5cnnn5)nn4)CC3)CC2C)COC1=O` (single isomer, unassigned) [Example 124], for which half-maximal inhibition (IC50) required 40 nM.

`CC1=C(N2C(=O)C3(CCN(C[C@H](O)c4ccc(-n5cnnn5)nn4)CC3)CC2C)COC1=O` (single isomer, unassigned) [Example 125]: the IC50 was 60 nM.

In turn, `CC1=C(N2C(=O)C3(CCN(C[C@@H](O)c4ccc(-n5cnnn5)nn4)CC3)CC2C)COC1=O` (single isomer, unassigned) [Example 126] showed an IC50 of 90 nM.

`CC1=C(N2C(=O)C3(CC2C)CC2CCC(C3)N2C[C@H](O)c2ccc(-n3cnnn3)nc2)COC1=O` (single isomer, unassigned) [Example 133] returned an IC50 of 10 nM.

Compound `CC1=C(N2C(=O)C3(CC2C)CC2CCC(C3)N2C[C@@H](O)c2ccc(-n3cnnn3)nc2)COC1=O` (single isomer, unassigned) [Example 134] gave an IC50 of 60 nM.

`CC1=C(N2C(=O)C3(CC2C)CC2CCC(C3)N2C[C@H](O)c2ccc(-n3cnnn3)nc2)COC1=O` (single isomer, unassigned) [Example 135] yielded an IC50 of 50 nM.

In the case of `CC1=C(N2C(=O)C3(CC2C)CC2CCC(C3)N2C[C@@H](O)c2ccc(-n3cnnn3)nc2)COC1=O` (single isomer, unassigned) [Example 136], it took 80 nM to reach half-maximal inhibition (IC50).

Take `CC1=C(N2C(=O)C3(CCN(C[C@H](O)c4ncc(-n5cnnn5)cc4C)CC3)CC2C)COC1=O` (single isomer, unassigned) [Example 137]: half-maximal inhibition (IC50) required 80 nM.

Compound `CC1=C(N2C(=O)C3(CCN(C[C@@H](O)c4ncc(-n5cnnn5)cc4C)CC3)CC2C)COC1=O` (single isomer, unassigned) [Example 138] yielded a half-inhibitory concentration (IC50) of 80 nM.

On to `CC1=C(N2C(=O)C3(CCN(C[C@H](O)c4ccc(-n5cnnn5)cc4C)CC3)CC2C)COC1=O` (single isomer, unassigned) [Example 139], for which 40 nM corresponded to half-maximal inhibition (IC50).

In turn, `CC1=C(N2C(=O)C3(CCN(C[C@@H](O)c4ccc(-n5cnnn5)cc4C)CC3)CC2C)COC1=O` (single isomer, unassigned) [Example 140] returned a concentration for half-maximal inhibition (IC50) of 10 nM.

With `CC1=C(N2C(=O)C3(CCN(C[C@H](O)c4ccc(-n5cnnn5)cc4F)CC3)CC2C)COC1=O` (single isomer, unassigned) [Example 141], the midpoint of inhibition, the IC50, lay at 30 nM.

For `CC1=C(N2C(=O)C3(CCN(C[C@@H](O)c4ccc(-n5cnnn5)cc4F)CC3)CC2C)COC1=O` (single isomer, unassigned) [Example 142], the IC50 stood at 30 nM.

On to `COC1CN(C2=C(C)C(=O)OC2)C(=O)C12CC1CCC(C2)N1C[C@H](O)c1ccc(-n2cnnn2)nc1` (single isomer, unassigned) [Example 159], for which inhibition was half-maximal at 40 nM (IC50).

Compound `COC1CN(C2=C(C)C(=O)OC2)C(=O)C12CC1CCC(C2)N1C[C@H](O)c1cnc(-n2cnnn2)cn1` (single isomer, unassigned) [Example 160] came in with an IC50 of 110 nM.

Turning to `COC1CN(C2=C(C)C(=O)OC2)C(=O)C12CC1CCC(C2)N1C[C@H](O)c1ccc(-n2cnnn2)nc1` (single isomer, unassigned) [Example 161], the half-maximal inhibitory concentration (IC50) came to 30 nM.

The compound `COC1CN(C2=C(C)C(=O)OC2)C(=O)C12CC1CCC(C2)N1C[C@H](O)c1cnc(-n2cnnn2)cn1` (single isomer, unassigned) [Example 162] registered an IC50 of 40 nM.

In turn, `COC1CN(C[C@H](O)c2ccc(-n3cnnn3)nc2)CCC12CCN(C1=C(C)C(=O)OC1)C2=O` (single isomer, unassigned) [Example 170] gave a 50% inhibitory concentration (IC50) of 40 nM.

Turning to `COC1CN(C[C@@H](O)c2ccc(-n3cnnn3)nc2)CCC12CCN(C1=C(C)C(=O)OC1)C2=O` (single isomer, unassigned) [Example 171], the half-inhibitory concentration (IC50) worked out at 60 nM.

The compound `COC1CN(C[C@H](O)c2cnc(-n3cnnn3)cn2)CCC12CCN(C1=C(C)C(=O)OC1)C2=O` (single isomer, unassigned) [Example 172] had an IC50 of 180 nM.

With `COC1CN(C[C@@H](O)c2cnc(-n3cnnn3)cn2)CCC12CCN(C1=C(C)C(=O)OC1)C2=O` (single isomer, unassigned) [Example 173], 770 nM corresponded to half-maximal inhibition (IC50).

Turning to `COC1CN(C[C@H](O)c2ccc(-n3cnnn3)nc2)CCC12CCN(C1=C(C)C(=O)OC1)C2=O` (single isomer, unassigned) [Example 176], the IC50 came out at 90 nM.

Compound `COC1CN(C[C@@H](O)c2ccc(-n3cnnn3)nc2)CCC12CCN(C1=C(C)C(=O)OC1)C2=O` (single isomer, unassigned) [Example 177] yielded an IC50 of 70 nM.

On to `COC1CN(C[C@H](O)c2cnc(-n3cnnn3)cn2)CCC12CCN(C1=C(C)C(=O)OC1)C2=O` (single isomer, unassigned) [Example 178], for which it took 790 nM to reach half-maximal inhibition (IC50).

For the compound `COC1CN(C[C@@H](O)c2cnc(-n3cnnn3)cn2)CCC12CCN(C1=C(C)C(=O)OC1)C2=O` (single isomer, unassigned) [Example 179], the concentration for half-maximal inhibition (IC50) came to 330 nM.

Consider `CC1=C(N2CCC3(CCN(C[C@H](O)c4ccc(-n5cnnn5)nn4)CC3F)C2=O)COC1=O` (single isomer, unassigned) [Example 183], for which the 50% inhibitory concentration (IC50) was found to be 80 nM.

In turn, `CC1=C(N2CCC3(CCN(C[C@@H](O)c4ccc(-n5cnnn5)nn4)CC3F)C2=O)COC1=O` (single isomer, unassigned) [Example 184] showed an IC50 of 70 nM.

`CC1=C(N2CCC3(CCN(C[C@H](O)c4nnc(-n5cnnn5)cc4C)CC3F)C2=O)COC1=O` (single isomer, unassigned) [Example 185] came in with an IC50 of 50 nM.

In turn, `CC1=C(N2CCC3(CCN(C[C@@H](O)c4nnc(-n5cnnn5)cc4C)CC3F)C2=O)COC1=O` (single isomer, unassigned) [Example 186] registered a 50% inhibitory concentration (IC50) of 70 nM.

`CC1=C(N2CCC3(CCN(C[C@H](O)c4ccc(-n5cnnn5)nc4)CC3F)C2=O)COC1=O` (single isomer, unassigned) [Example 192]: the IC50 is 10 nM.

For `CC1=C(N2CCC3(CCN(C[C@@H](O)c4ccc(-n5cnnn5)nc4)CC3F)C2=O)COC1=O` (single isomer, unassigned) [Example 193], the half-maximal inhibitory concentration (IC50) amounted to 20 nM.

For `CC1=C(N2CCC3(CCN(C[C@H](O)c4ccc(-n5cnnn5)nc4)CC3F)C2=O)COC1=O` (single isomer, unassigned) [Example 194], the IC50 amounted to 10 nM.

On to `CC1=C(N2CCC3(CCN(C[C@@H](O)c4ccc(-n5cnnn5)nc4)CC3F)C2=O)COC1=O` (single isomer, unassigned) [Example 195], for which it took 10 nM to reach half-maximal inhibition (IC50).

Turning to `CC1=C(N2CCC3(CCN(C[C@H](O)c4ccc(-n5cnnn5)nn4)CC3F)C2=O)COC1=O` (single isomer, unassigned) [Example 196], half-maximal inhibition (IC50) required 40 nM.

With `CC1=C(N2CCC3(CCN(C[C@@H](O)c4ccc(-n5cnnn5)nn4)CC3F)C2=O)COC1=O` (single isomer, unassigned) [Example 197], the midpoint of inhibition, the IC50, lay at 30 nM.

`CC1=C(N2CCC3(CCN(C[C@H](O)c4nnc(-n5cnnn5)cc4C)CC3F)C2=O)COC1=O` (single isomer, unassigned) [Example 198] yielded an IC50 of 10 nM.

Take `CC1=C(N2CCC3(CCN(C[C@@H](O)c4nnc(-n5cnnn5)cc4C)CC3F)C2=O)COC1=O` (single isomer, unassigned) [Example 199]: the IC50 was determined as 20 nM.

`CC1=C(N2CCC3(CCN(C[C@H](O)c4ccc(-n5cnnn5)nc4C)CC3O)C2=O)COC1=O` (single isomer, unassigned) [Example 202] showed an IC50 of 60 nM.
